Tests used:
[1] = Rat pharmacokinetic studies, intramuscular; assay type: in vivo, male Sprague Dawley Rats; conditions: for Mean conc Nalmefene: rat plasma, IM, 86 mg/ml at 17 mg/kg
Procedure: The purpose of this study is to determine the pharmacokinetics of test compounds in plasma, following intramuscular administration to male Sprague Dawley Rats (n=3, unless otherwise specified).
The dose formulation of 400 mg base equivalents/ml in sesame oil+1% benzyl alcohol (unless otherwise specified) was administered by intramuscular injection. The dose volume was determined by the animals' body weight determined on the morning of dosing day.
(§1) Each collected blood sample was centrifuged for 4 minutes at 4° C. and 10000 rpm for plasma collection. Plasma was collected and transferred into a pre-labeled PP tube in dry ice at each time point and precipitated immediately using ACN at a ratio of 1:4 (plasma:ACN). Centrifuged again (10 minutes, 12000 rpm) and obtain the supernatant.
After terminal collection, all supernatant was stored at approximately −80° C. until bioanalysis.
(§2) LC-MS/MS methods for the quantitative determination of test compound in biological matrix were developed. […] The sample analysis was performed concurrently with a set of calibration standards and two sets of QC samples using the LC-MS/MS method.
(§3) Plasma concentration versus time data was analyzed by non-compartmental approaches using the Phoenix WinNonlin 6.3 software program. Cmax, Tmax, T1/2, AUC(0-t), AUC(0-inf), MRT(0-t), MRT(0-inf) and graphs of plasma concentration versus time profile were prepared.

[2] = Dog pharmacokinetic studies, deep intramuscular; assay type: in vivo, Beagle dogs; conditions: dog IM, 48 mg/kg, Sesame oil + 1% Benzyl Alcohol
Procedure: The purpose of this study is to determine the pharmacokinetics of test compounds in plasma, following deep intramuscular administration to Beagle dogs (n=3, unless otherwise specified).
(§4) The dose formulation (concentration−400 mg base equivalents/ml in sesame oil+1% benzyl alcohol, unless otherwise specified) was administered via deep intramuscularly (unless otherwise specified). The injection vehicle was also dosed via deep intramuscular route (unless otherwise specified) on contralateral site of each animal at study initiation. The animals were sedated with Propofol at 6 mg/kg via IV administration. Following sedation hair was carefully removed from around the injection site and the area gently cleaned. Care will be taken to avoid irritating skin during shaving and cleaning the injection site. Then dogs will be dosed with deep IM administration. At least 2.5 cm depth from the surface into the central aspect of the quadriceps or biceps femoris muscle, by angling the needle toward the femur. If the needle hits the femur, simply draws back slightly and then inject. The dose volume will be determined by the animals' body weight collected on the morning of dosing day. For repeated administration, the injection sites may be rotated to minimize tissue injury.
Blood samples were collected from a peripheral vessel from restrained, non-sedated animals per sampling time point.
Approximately 0.8 mL blood will be collected at each time point.
as §1
After terminal collection, all supernatant was stored at approximately −80° C. F until bioanalysis.
as §2, §3

[3] = Dog clinical observations after intramuscular dosing; assay type: in vivo, Beagle dogs; conditions: dog D1502, compound 18 at 48 mg/kg; earlier weight, reported at 96 hr
Procedure: Weight monitoring was done every week.
as §4

[4] = Solubility determination in oil (cottonseed oil, sesame oil)
Procedure: A known amount of test substance (˜40 mg) was weighed into the vial, 100 μL of oil was added and heated to 60° C. and then system was slurried to reach equilibrium. […] Extra oil was added into the vial once compound precipitated out and then the system was re-equilibrated at 1000 rpm at room temperature (25° C.). Final concentration was determined by HPLC method as described below in Table 6a and 6b.

[5] = Plasma stability assay, rat plasma; assay type: in vitro ADME; conditions: 37° C., 10 μM
Procedure: Plasma stability determination of the test compounds in rat, dog, cynomolgus monkey and human plasma is performed using HPLC-MS. For rat, incubations are carried out in 96-well polypropylene plates in 5 aliquots of 70 μL each (one for each time point). […] Five time points are analyzed (0, 15, 120, 480 and 1440 min). For dog, monkey and human, test compounds (2 μM, final solvent concentration 1%) were also incubated at 37° C. and analyzed at five time points (0, 10, 30, 60 and 120 min). All incubations are performed in duplicates. The samples are analyzed by HPLC-MS. The percentage of parent compound remaining after incubation in plasma is determined.

[6] = heating temp. 60 °C, obs. temp. 25 °C
[7] = rat IM, 17 mg/kg, Sesame oil + 1% Benzyl Alcohol

Row | SMILES | Approximate Solubility (mg/mL) in Excipient: Sesame oil [4, 6] | % remaining at time point in minutes, 0 min [5] | % remaining at time point in minutes, 15 min [5] | % remaining at time point in minutes, 120 min [5] | % remaining at time point in minutes, 480 min [5] | % remaining at time point in minutes, 1440 min [5] | further results
1 | C=C1CC[C@@]2(O)[C@H]3Cc4ccc(O)c5c4[C@@]2(CCN3CC2CC2)[C@H]1O5.Cl [Nalmefene HCl-IR] | – | – | – | – | – | – | AUC0-inf (ng · h/mL) nalmefene ([1]; rat, 0.80 mg/kg, saline): 66.0 ng·h/mL; Terminal Half-life t1/2 (hour) nalmefene ([1]; rat, 0.80 mg/kg, saline): 0.87 h
2 | CCCCCCCC/C=C/CCCCCCCCOC(=O)OCOc1ccc2c3c1O[C@H]1C(=O)CC[C@@]4(O)C(C2)N(CC2CC2)CC[C@]314 [Compound 7, (((4aS,7aR,12bS)-3-(cyclopropylmethyl)-4a-hydroxy-7-oxo-2,3,4,4a,5,6,7,7a-octahydro-1H-4,12-methanobenzofuro[3,2-e]isoquinolin-9-yl)oxy)methyl ((E)-octadec-9-en-1-yl) carbonate] | – | – | – | – | – | – | AUC0-inf (ng · h/mL) prodrug [2]: 610 ng·h/mL
3 | C=C1CC[C@@]2(O)C3Cc4ccc(OC(=O)OCCCCCCCCCC)c5c4[C@@]2(CCN3CC2CC2)[C@H]1O5 [Compound 18, (4aS,7aS,12bS)-3-(cyclopropylmethyl)-4a-hydroxy-7-methylene-2,3,4,4a,5,6,7,7a-octahydro-1H-4,12-methanobenzofuro[3,2-e]isoquinolin-9-yl decyl carbonate] | >402 mg/mL | 100% | 0.6% | 0.3% | 0.1% | 0% | weight decreases from (earlier weight), D1502 [3]: 7.76 kg; Approximate Solubility (mg/mL) in Excipient: Cottonseed oil [4, 6]: >400 mg/mL
4 | CCCCCCCCCCCCOC(=O)OCOc1ccc2c3c1O[C@H]1C(=O)CC[C@@]4(O)C(C2)N(CC2CC2)CC[C@]314 [Compound 29, (((4aS,7aR,12bS)-3-(cyclopropylmethyl)-4a-hydroxy-7-oxo-2,3,4,4a,5,6,7,7a-octahydro-1H-4,12-methanobenzofuro[3,2-e]isoquinolin-9-yl)oxy)methyl dodecyl carbonate] | >416.5 mg/mL | – | – | – | – | – | AUC0-inf (ng · h/mL) prodrug ([1]; rat IM, 165 mg/kg, Sesame oil + 1% Benzyl Alcohol): 74.8 ng·h/mL
5 | CCCCCCCCCCCCCC(=O)Oc1ccc2c3c1O[C@H]1C(=O)CC[C@@]4(O)C(C2)N(CC2CC2)CC[C@]314 [Compound 57, (4aS,7aR,12bS)-3-(cyclopropylmethyl)-4a-hydroxy-7-oxo-2,3,4,4a,5,6,7,7a-octahydro-1H-4,12-methanobenzofuro[3,2-e]isoquinolin-9-yl tetradecanoate] | >417.3 mg/mL | 100% | 10.5% | 3.2% | 1.2% | 0% | –
6 | CCCCCCCCCCCCCCC(=O)Oc1ccc2c3c1O[C@H]1C(=O)CC[C@@]4(O)C(C2)N(CC2CC2)CC[C@]314 [Compound 58, (4aS,7aR,12bS)-3-(cyclopropylmethyl)-4a-hydroxy-7-oxo-2,3,4,4a,5,6,7,7a-octahydro-1H-4,12-methanobenzofuro[3,2-e]isoquinolin-9-yl pentadecanoate] | 99.4 to 198.8 mg/mL | 100% | 37% | 20% | 2.9% | 1.8% | –
7 | C=C1CC[C@@]2(O)C3Cc4ccc(OC(=O)CCCCCCC/C=C\CCCCCCCC)c5c4[C@@]2(CCN3CC2CC2)[C@H]1O5 [Compound 36, (4aS,7aS,12bS)-3-(cyclopropylmethyl)-4a-hydroxy-7-methylene-2,3,4,4a,5,6,7,7a-octahydro-1H-4,12-methanobenzofuro[3,2-e]isoquinolin-9-yl oleate] | >408 mg/mL | 100% | 74.4% | 66.3% | 39.8% | 19.1% | Approximate Solubility (mg/mL) in Excipient: Cottonseed oil [4, 6]: >407 mg/mL; Approximate Solubility (mg/mL) in Excipient: Sesame oil ([4]; heating temp. 40 °C, obs. temp. 40 °C): >411.6 mg/mL
8 | C=C1CC[C@@]2(O)C3Cc4ccc(OC(=O)CCCCCCCCCCC)c5c4[C@@]2(CCN3CC2CC2)[C@H]1O5 [Compound 59, (4aS,7aS,12bS)-3-(cyclopropylmethyl)-4a-hydroxy-7-methylene-2,3,4,4a,5,6,7,7a-octahydro-1H-4,12-methanobenzofuro(3,2-c]isoquinolin-9-yl dodecanoate, reference compound] | – | 100% | 5.9% | 0.7% | 0.2% | 0% | AUC0-inf (ng · h/mL) nalmefene [1, 7]: 1026 ng·h/mL; AUC0-inf (ng · h/mL) prodrug [1, 7]: 10.4 ng·h/mL; Half-life t1/2 (hour) prodrug [1, 7]: 15.2 h; Terminal Half-life t1/2 (hour) nalmefene [1, 7]: 248 h; Mean conc Nalmefene ([1]; 1.00 h): 7.85 ng/mL; Mean conc Nalmefene ([1]; 2.00 h): 8.10 ng/mL; Mean conc Nalmefene ([1]; 4.00 h): 7.45 ng/mL; Mean conc Nalmefene ([1]; 8.00 h): 6.85 ng/mL; Mean conc Nalmefene ([1]; 24.0 h): 6.96 ng/mL; Mean conc Nalmefene ([1]; 48.0 h): 7.92 ng/mL; Mean conc Nalmefene ([1]; 72.0 h): 5.77 ng/mL; Mean conc Nalmefene ([1]; 144 h): 1.59 ng/mL; Mean conc Nalmefene ([1]; 312 h): 0.403 ng/mL; Mean conc Nalmefene ([1]; 480 h): 0.235 ng/mL; Mean conc Nalmefene ([1]; 648 h): 0.145 ng/mL
9 | C=C1CC[C@@]2(O)C3Cc4ccc(OCOC(=O)OCCCCCCCC/C=C/CCCCCCCC)c5c4[C@@]2(CCN3CC2CC2)[C@H]1O5 [Compound 1, (((4aS,7aS,12bS)-3-(cyclopropylmethyl)-4a-hydroxy-7-methylene-2,3,4,4a,5,6,7,7a-octahydro-1H-4,12-methanobenzofuro[3,2-e]isoquinolin-9-yl)oxy)methyl ((E)-octadec-9-en-1-yl) carbonate] | – | – | – | – | – | – | AUC0-inf (ng · h/mL) prodrug [2]: 1040 ng·h/mL; Half-life t1/2 (hour) prodrug [2]: 261 h

— US10525055B2, “Opioid receptor antagonist prodrugs” (Nirsum Laboratories, Inc., priority 2017, dated 2020)
